Reference: US8198434B2, “Process for preparing cefsulodin sodium” (IDEXX Laboratories, Inc., priority 2008, dated 2012)

Legend:
Assay type in all cases: physicochemical
[1] = Stability study of cefsulodin sodium stored at 55° C., purity by HPLC (Example 3); details: for Purity Day 0: Day 0, HPLC peak area; for Purity Day 7: Day 7, HPLC peak area; for Purity Day 14: Day 14, HPLC peak area; for Purity Day 21: Day 21, HPLC peak area; for Purity Day 28: Day 28, HPLC peak area; for Purity Day 35: Day 35, HPLC peak area; for Purity Day 42: Day 42, HPLC peak area; for Purity Day 49: Day 49, HPLC peak area; for Purity Day 56: Day 56, HPLC peak area; for Purity Day 63: Day 63, HPLC peak area; for Purity Day 70: Day 70, HPLC peak area
Experimental: (§1) Three lots of cefsulodin sodium, prepared according to the process described in Example 2, were stored at 55° C. and 40° C. and the purity of the sample determined as a function of time using HPLC. […] The stability of a lyophilized sample of cefsulodin sodium containing about 5-6% water at 55° C. was also determined. The lyophilized sample was prepared by suspending cefsulodin in water, adding sodium hydroxide until the cefsulodin dissolved, and then removing the water by lyophilization. The area of the HPLC peak corresponding to cefsulodin was used to determine purity. The following assay was used to determine purity:
(§2) 1. 25 mM Sodium Acetate pH 4.5 • a. Measure out 2 L of HPLC grade water. • b. Add 4.1 g of sodium acetate. • c. Mix until dissolved. • d. Adjust the pH to 4.5 with HPLC grade acetic acid. • e. Filter the solution through a nylon filter.
(§3) 2. 3% acetonitrile-97% 25 mM sodium acetate pH 4.5 (Mobile Phase A) • a. Measure out 1940 mL of 25 mM sodium acetate into a 2 L flask. • b. Add 60 mL of HPLC grade acetonitrile. • c. Mix well.
(§4) 3. HPLC Grade acetonitrile (Mobile Phase B) • a. Transfer acetonitrile into a 1 L flask. Sample Preparation:
(§5) 1. Weigh out about 10 mg of cefsulodin into a 15 mL conical tube.
(§6) 2. Add […] of mobile phase A and mix to dissolve (1 mg/mL cefsulodin Stock solution).
(§7) 3. Transfer 1 mL of cefsulodin stock solution into another 15 mL conical tube.
(§8) 4. Add 7 mL of mobile phase A to make a 0.125 mg/mL solution of cefsulodin.
(§9) 5. Filter this solution through a nylon syringe filter into an HPLC vial.
(§10) 6. Analyze the sample by HPLC using the conditions described below.
(§11) Solvents: Pump A-Mobile Phase A • Pump B-Mobile Phase B
(§12) Detection wavelength: 254 nm
(§13) Initial Conditions: 100% Pump A-0% Pump B
(§14) The above gradient can be summarized as follows: maintain at 0% B for 0.3 min; at 0.3 min run a gradient to 70% B for 2.5 min; maintain at 70% B for 1 min; at 3.5 min go back to 0% B for 0.5 min; run at 0% B until the 8.00 min mark.

[2] = Stability study of cefsulodin sodium stored at 40° C., purity by HPLC (Example 3); details: for Purity Day 0: Day 0, HPLC peak area; for Purity Day 7: Day 7, HPLC peak area; for Purity Day 14: Day 14, HPLC peak area; for Purity Day 21: Day 21, HPLC peak area; for Purity Day 28: Day 28, HPLC peak area; for Purity Day 35: Day 35, HPLC peak area; for Purity Day 42: Day 42, HPLC peak area; for Purity Day 49: Day 49, HPLC peak area; for Purity Day 56: Day 56, HPLC peak area; for Purity Day 63: Day 63, HPLC peak area; for Purity Day 70: Day 70, HPLC peak area
Experimental: as §1, §2, §3, §4, §5, §6, §7, §8, §9, §10, §11, §12, §13, §14

[3] = Stability of needle-shaped and spherical-shaped cefsulodin sodium crystals at 55° C. (Example 5); details: for Purity Day 1 / Purity Day 7 / Purity Day 14 / Purity Day 21: crystal form stored at 55° C.
Experimental: Needle-shaped cefsulodin sodium crystals were obtain according to a process similar to the process described in Example 2.
Spherical-shaped cefsulodin sodium crystals were obtain according to the process described in Example 3.
The stability of each crystal form was measured at 55° C.

[4] = Storage at about room temperature, purity by HPLC
Solubility in water = experiment: Solubility in water

| Structure (SMILES) | Purity Day 0 [1] [%] | Purity Day 7 [1] [%] | Purity Day 14 [1] [%] | Purity Day 21 [1] [%] | Purity Day 28 [1] [%] | Purity Day 42 [1] [%] | Purity Day 49 [1] [%] | Purity Day 56 [1] [%] | Purity Day 63 [1] [%] | Purity Day 70 [1] [%] | Purity Day 0 [2] [%] | Purity Day 7 [2] [%] | Purity Day 14 [2] [%] | Purity Day 21 [2] [%] | Purity Day 28 [2] [%] | Purity Day 42 [2] [%] | Purity Day 49 [2] [%] | Purity Day 56 [2] [%] | Purity Day 63 [2] [%] | Purity Day 70 [2] [%] | also measured |
| --- | --- | --- | --- | --- | --- | --- | --- | --- | --- | --- | --- | --- | --- | --- | --- | --- | --- | --- | --- | --- | --- |
| NC(=O)c1cc[n+](CC2=C(C(=O)[O-])N3C(=O)[C@@H](NC(=O)[C@@H](c4ccccc4)S(=O)(=O)[O-])[C@H]3SC2)cc1.[Na+] [Lot 1, cefsulodin sodium] | 99.2 | 97.2 | 96.0 | 94.9 | 94.3 | 91.8 | 90.9 | 90.5 | 89.8 | 89.1 | 99.2 | 98.2 | 98.2 | 97.5 | 97.2 | 96.3 | 96.4 | 96.0 | 96.0 | 95.3 | Purity Day 35 [1]: 93.4%; Purity Day 35 [2]: 96.4% |
| NC(=O)c1cc[n+](CC2=C(C(=O)[O-])N3C(=O)[C@@H](NC(=O)[C@@H](c4ccccc4)S(=O)(=O)[O-])[C@H]3SC2)cc1.[Na+] [Lot 2, cefsulodin sodium] | 99.2 | 97.1 | 96.1 | 94.7 | 94.4 | 91.8 | 91.0 | 90.1 | 89.8 | 89.2 | 99.2 | 98.5 | 98.3 | 97.7 | 97.1 | 96.5 | 96.4 | 96.4 | 96.1 | 95.6 | Purity Day 35 [1]: 92.9%; Purity Day 35 [2]: 96.8% |
| NC(=O)c1cc[n+](CC2=C(C(=O)[O-])N3C(=O)[C@@H](NC(=O)[C@@H](c4ccccc4)S(=O)(=O)[O-])[C@H]3SC2)cc1.[Na+] [Lot 3, cefsulodin sodium] | 99.3 | 96.9 | 96.1 | 94.8 | 93.9 | 93.4 | 92.6 | 92.7 | 91.3 | 91.3 | 99.3 | 98.4 | 98.5 | 98.1 | 97.9 | 96.2 | 97.2 | 97.3 | 97.0 | 97.0 |  |
| NC(=O)c1cc[n+](CC2=C(C(=O)O)N3C(=O)[C@@H](NC(=O)[C@@H](c4ccccc4)S(=O)(=O)[O-])[C@H]3SC2)cc1 [Lyophilized, cefsulodin sodium] | 98.8 |  |  |  | 80.4 |  |  |  |  |  |  |  |  |  |  |  |  |  |  |  |  |
| NC(=O)c1cc[n+](CC2=C(C(=O)[O-])N3C(=O)[C@@H](NC(=O)[C@@H](c4ccccc4)S(=O)(=O)[O-])[C@H]3SC2)cc1.[Na+] [Needle-shaped, cefsulodin sodium] |  |  |  |  |  |  |  |  |  |  |  |  |  |  |  |  |  |  |  |  | stability of crystal forms (comparison) ([3]; 55° C.): more stable than the spherical-shaped crystals; Purity Day 1 [3]: 99.2; Purity Day 7 [3]: 98.1; Purity Day 14 [3]: 96.8; Purity Day 21 [3]: 95.7 |
| NC(=O)c1cc[n+](CC2=C(C(=O)[O-])N3C(=O)[C@@H](NC(=O)[C@@H](c4ccccc4)S(=O)(=O)[O-])[C@H]3SC2)cc1.[Na+] [Spherical-shaped, cefsulodin sodium] |  |  |  |  |  |  |  |  |  |  |  |  |  |  |  |  |  |  |  |  | Purity Day 1 [3]: 98.5; Purity Day 7 [3]: 86.3; Purity Day 14 [3]: 83.7; Purity Day 21 [3]: 83.1 |
| NC(=O)c1cc[n+](CC2=C(C(=O)O)N3C(=O)[C@@H](NC(=O)[C@@H](c4ccccc4)S(=O)(=O)[O-])[C@H]3SC2)cc1 [cefsulodin sodium] |  |  |  |  |  |  |  |  |  |  |  |  |  |  |  |  |  |  |  |  | purity after storage for 29 days ([4]; about room temperature, 29 days): 80.4%; purity after storage for 56 days ([4]; about room temperature, 56 days): 76.7%; purity determined by HPLC before storage ([4]; initial, before storage at about room temperature): about 95% |
| NC(=O)c1cc[n+](CC2=C(C(=O)O)N3C(=O)[C@@H](NC(=O)[C@@H](c4ccccc4)S(=O)(=O)[O-])[C@H]3SC2)cc1 [cefsulodin] |  |  |  |  |  |  |  |  |  |  |  |  |  |  |  |  |  |  |  |  | solubility in water (Solubility in water): insoluble in water |
| NC(=O)c1cc[n+](CC2=C(C(=O)[O-])N3C(=O)[C@@H](NC(=O)[C@@H](c4ccccc4)S(=O)(=O)[O-])[C@H]3SC2)cc1.[Na+] [monosodium cefsulodin, monosodium salt of cefsulodin] |  |  |  |  |  |  |  |  |  |  |  |  |  |  |  |  |  |  |  |  | solubility in water (Solubility in water): more soluble in water that cefsulodin |
